According to patent US20230264009A1, “DISINFECTING CAP KIT FOR LUER ACCESS DEVICES” (SterileCare Inc., priority 2022, published 2023):

Key:
[1] = test system: 48-h-old biofilms of bacterial and fungal strains; test: MBEC Assay, 24 h exposure (summary); assay type: cell-based; settings: following 24 h of treatment
Protocol: A biofilm cultivation cell composition was provided. This fifth composition was created using an MBEC Assay® biofilm inoculator, consisting of a polystyrene lid with 96 downward-protruding pegs and a corresponding base used to grow biofilms. A standardized inoculum was diluted in an appropriate biofilm growth medium to achieve a viable cell count of 1.5 × 10^6 CFU/mL of bacterial cells or […] CFU/mL of fungal cells. Then, 150 µL of this inoculum was transferred into each appropriate well, and the peg lids were inserted into the microtiter plates. The plates were sealed with Parafilm and were incubated at optimum temperature for 48 h with slight rocking for bacteria and shaking at 200 rpm for fungal strains. After incubation, the peg lid was removed from the base and rinsed twice with sterile phosphate-buffered saline (PBS) for 2 min to remove loosely attached non-sessile cells. Before the antimicrobial challenge, the pegs in column 1 (n = 8) were considered the biofilm growth control; these pegs were removed from the lids, placed into 200 µL of recovery medium, and analyzed for starting biofilm cell numbers as described below. […] After the antimicrobial challenge, the pegs were rinsed twice with sterile PBS for 2 min and placed into a new 96-well plate containing 200 µL of recovery medium. The recovery plates were sealed with Parafilm, and biofilm cells were dislodged from the pegs by sonication for 30 min with a Branson 3510 bath sonicator. The biofilm cells in the recovery medium were serially diluted, and a drop dilution assay was performed to enumerate the viable cells. MBEC values were determined as the minimum concentration of antimicrobials that yielded a viable cell count at or lower than the 125 CFU/mL detection limit.

[2] = test system: Staphylococcus aureus ON89; test: Checkerboard titration, FMCI; assay type: cell-based; settings: tetrasodium EDTA + ethanol; S. aureus ON89
Protocol: (§1) An assay was made using a minimum inhibitory concentration (MIC) and minimum bactericidal concentration (MBC) and minimum fungicidal concentration (MFC) determination. The MIC was determined by the micro broth dilution method in 96-well plates. Serial two-fold dilutions of tetrasodium EDTA (from 2% to 0.015%), ethanol (from 50% to 0.1%) and chlorhexidine HCl (from 100 µg/mL to 0.025 µg/mL) were prepared in MH broth with a final volume of 90 µL per well. A 10 µL containing 1 × 10^5 bacterial cells or 2 × 10^3 fungal cells were added to each well. The inoculated plates were covered with a lid, sealed with Parafilm, and incubated for 24 h at 37° C. with slight rocking on a tilting platform shaker. After incubation, the optical density at 600 nm (OD 600 ) of the cultures in each well was measured using an xMark™ Microplate Absorbance Spectrophotometer (Bio-Rad). […] MBCs and MFCs were determined by transferring 100 µL from each well with no apparent growth onto appropriate agar plates, followed by incubation for 24 h at 37° C.
(§2) A fourth composition and solution included tetrasodium EDTA with ethanol or chlorhexidine HCl. This fourth composition and solution were created using checkerboard titration methods using micro broth dilution in 96-well microtiter plates. The concentrations of antimicrobials used were based on previously determined MIC values. Briefly, 200 µL of two-fold dilutions of tetrasodium EDTA and ethanol or chlorhexidine HCl were prepared in MH or MH II broth with standardized cell suspension. […] Microtiter plates were incubated at 37° C. for 24 h, and the results were analyzed. Each test was performed in duplicate and included a growth control without adding any antimicrobials.

[3] = test system: Staphylococcus epidermidis ON170; test: Checkerboard titration, FMCI; assay type: cell-based; settings: tetrasodium EDTA + ethanol; S. epidermidis ON170
Protocol: as §1, §2

[4] = test system: Serratia marcescens SK2; test: Checkerboard titration, FMCI; assay type: cell-based; settings: tetrasodium EDTA + ethanol; S. marcescens SK2
Protocol: as §1, §2

[5] = test system: Proteus mirabilis ON153; test: Checkerboard titration, FMCI; assay type: cell-based; settings: tetrasodium EDTA + ethanol; P. mirabilis ON153
Protocol: as §1, §2

[6] = test system: Stenotrophomonas maltophilia ON17; test: Checkerboard titration, FMCI; assay type: cell-based; settings: tetrasodium EDTA + ethanol; S. maltophilia ON17
Protocol: as §1, §2

[7] = test system: Candida albicans SK4b; test: Checkerboard titration, FMCI; assay type: cell-based; settings: tetrasodium EDTA + ethanol; C. albicans SK4b
Protocol: as §1, §2

[8] = test system: Staphylococcus epidermidis SK9 biofilm; test: FBEC index, checkerboard dilution on biofilms; assay type: cell-based; settings: tetrasodium EDTA + ethanol; S. epidermidis SK9 biofilm
Protocol: (§3) In step (4), microtiter plates are incubated at 37° C. for 24 h. then (6), after incubation, the bacterial and fungal cells were dislodged from the pegs into the recovery medium described above.
(§4) Three 10-µL aliquots, for a total of 30 µL from each well of recovery medium, were spotted on MH agar plates and incubated for 24 h at 37° C. […] The FBEC determination is a modification of the FICI.

[9] = test system: Staphylococcus aureus ON89 biofilm; test: FBEC index, checkerboard dilution on biofilms; assay type: cell-based; settings: tetrasodium EDTA + ethanol; S. aureus ON89 biofilm
Protocol: as §3, §4

[10] = test system: 48-h old biofilms of test organisms; test: Rapid biofilm eradication, 2 h exposure; assay type: cell-based; settings: alone at the MBEC
Protocol: Determining rapid biofilm eradication by tetrasodium EDTA, ethanol, and chlorhexidine HCl alone and in combination was performed. After biofilm formation, control pegs (n = 6) were removed and analyzed to determine the starting biofilm cell numbers via the drop dilution method. The 48-h old biofilms on the pegs were exposed to different concentrations of test antimicrobials, dissolved in an appropriate growth medium, for two h to evaluate their efficacy alone and in combination. Antimicrobial solutions tested against each organism included each agent alone at the MBEC, double combinations at the FBEC, and triple combinations ranging from 5 to 20% ethanol, 2.5-5 µg/mL chlorhexidine HCl and 1- 3% tetrasodium EDTA. Following treatment, pegs were washed twice with sterile PBS, and the biofilm cells were dislodged into recovery medium and enumerated as described above.
The method for rapid biofilm eradication ability of test antimicrobials alone and in combination against 48-h-old biofilms within two h exposure time included (1) choosing different concentrations of test antimicrobials to assess their potency in eradicating preformed biofilms of study organisms within two h. Then (2) the quantitative recovery from biofilms following exposure to the antimicrobial solutions for bacterial strains (FIGS. 6A-6C) and fungal strains (FIG. 7) was evaluated.

[11] = test system: S. epidermidis SK9; test: Checkerboard titration, FICI; assay type: cell-based, Staphylococcus epidermidis; settings: tetrasodium EDTA + ethanol
Protocol: as §2

[12] = test system: Escherichia coli SK2 biofilm; test: FBEC index, checkerboard dilution on biofilms; assay type: cell-based; settings: tetrasodium EDTA + ethanol; E. coli SK2 biofilm
Protocol: as §3, §4

[13] = test system: MRSA ON184; test: Checkerboard titration, FICI; assay type: cell-based, Staphylococcus aureus; settings: tetrasodium EDTA + ethanol
Protocol: as §2

[14] = test system: C. albicans ON47; test: Checkerboard titration, FICI; assay type: cell-based, Candida albicans; settings: tetrasodium EDTA + ethanol
Protocol: as §2

[15] = test system: MRSA ON184; test: Checkerboard titration, FMCI; assay type: cell-based, Staphylococcus aureus; settings: tetrasodium EDTA + ethanol
Protocol: as §1, §2

[16] = test system: C. albicans ON47 biofilm; test: FBEC index, checkerboard dilution on biofilms; assay type: cell-based, Candida albicans; settings: tetrasodium EDTA + ethanol
Protocol: as §3, §4

[17] = test system: MRSA ON184 biofilm; test: FBEC index, checkerboard dilution on biofilms; assay type: cell-based, Staphylococcus aureus; settings: tetrasodium EDTA + ethanol
Protocol: as §3, §4

[18] = test system: C. albicans ON47; test: Checkerboard titration, FMCI; assay type: cell-based, Candida albicans; settings: tetrasodium EDTA + ethanol
Protocol: as §1, §2

[19] = test system: Candida albicans SK4b biofilm; test: FBEC index, checkerboard dilution on biofilms; assay type: cell-based; settings: tetrasodium EDTA + ethanol; C. albicans SK4b biofilm
Protocol: as §3, §4

[20] = test system: Staphylococcus aureus ON89; test: Checkerboard titration, FICI; assay type: cell-based; settings: tetrasodium EDTA + ethanol; S. aureus ON89
Protocol: as §2

[21] = test system: Staphylococcus epidermidis ON170; test: Checkerboard titration, FICI; assay type: cell-based; settings: tetrasodium EDTA + ethanol; S. epidermidis ON170
Protocol: as §2

[22] = test system: Proteus mirabilis ON153; test: Checkerboard titration, FICI; assay type: cell-based; settings: tetrasodium EDTA + ethanol; P. mirabilis ON153
Protocol: as §2

[23] = test system: Stenotrophomonas maltophilia ON17; test: Checkerboard titration, FICI; assay type: cell-based; settings: tetrasodium EDTA + ethanol; S. maltophilia ON17
Protocol: as §2

[24] = test system: Candida albicans SK4b; test: Checkerboard titration, FICI; assay type: cell-based; settings: tetrasodium EDTA + ethanol; C. albicans SK4b
Protocol: as §2

[25] = test system: S. epidermidis SK9; test: Checkerboard titration, FMCI; assay type: cell-based, Staphylococcus epidermidis; settings: tetrasodium EDTA + ethanol
Protocol: as §1, §2

**Q.** What does the source list for `CCO` [Ethanol, ethanol]?
**A.** Concentration alone able to eradicate all established biofilms [1]: 5%; Concentration in combination giving FMCI [2]: 3.125 % w/v; Concentration in combination giving FMCI [3]: 1.6 % w/v; Concentration in combination giving FMCI [4]: 6.25 % w/v; Concentration in combination giving FMCI [5]: 6.25 % w/v; Concentration in combination giving FMCI [6]: 1.6 % w/v; Concentration in combination giving FMCI [7]: 3.125 % w/v; FBEC (concentration in combination) [8]: 1.6 % w/v; FBEC (concentration in combination) [9]: 0.8 % w/v; Eradication of preformed biofilms [10]: failed to eradicate; Concentration in combination giving FICI [11]: 0.4 % w/v; FBEC (concentration in combination) [12]: 1.6 % w/v; Concentration in combination giving FICI [13]: 0.4 % w/v; Concentration in combination giving FICI [14]: 0.4 % w/v; Concentration in combination giving FMCI [15]: 3.125 % w/v; FBEC (concentration in combination) [16]: 1.6 % w/v; FBEC (concentration in combination) [17]: 1.6 % w/v; Concentration in combination giving FMCI [18]: 3.125 % w/v; FBEC (concentration in combination) [19]: 1.6 % w/v; Concentration in combination giving FICI [20]: 0.4 % w/v; Concentration in combination giving FICI [21]: 0.4 % w/v; Concentration in combination giving FICI [22]: 1.6 % w/v; Concentration in combination giving FICI [23]: 0.4 % w/v; Concentration in combination giving FICI [24]: 1.6 % w/v; Concentration in combination giving FMCI [25]: 3.125 % w/v
